Values quoted from earlier work, collected in publication PMC2099433, “The binding site for neohesperidin dihydrochalcone at the human sweet taste receptor” (BMC Structural Biology, 2007).

How the values were obtained:
sweet taste [1] = system: sweet taste; set-up: method as in PMID 831282, PMID 14403185; conditions: cited from earlier work
sweet taste [2] = system: sweet taste; set-up: method as in PMID 10480680; conditions: humans; cited from earlier work

| Structure (SMILES) | taste (sweet taste [1]) | inhibition of the sweet taste of NHDC (sweet taste [2]) |
| --- | --- | --- |
| COc1ccc(CCC(=O)c2c(O)cc(O)cc2O)cc1O [hesperitin dihydrochalcone] | tastes sweet |  |
| COc1ccc(OC(C)C(=O)O)cc1 (centres unmarked) [lactisole] |  | did not inhibit the sweet taste of NHDC |
